Test results published in patent publication US4402962A, “Analgesic mixture of nalbuphine and 4,5-bis(4-methoxyphenyl)-2-(trifluoromethylsulfonyl)-1H-imidazole” (E. I. Du Pont de Nemours and Company, priority 1982, dated 1983).

Assay: phenyl-p-benzoquinone induced writhing test in mice (mouse antiphenylquinone writhing test), oral
Format: in vivo, mouse (male CF1)
Details: for % MICE BLOCKED: oral
Description: The phenyl-p-benzoquinone induced writhing test in mice [H. Blumberg et al., Proc. Soc. […] The method simply consists of reading the % ED50 DOSE for each dose ratio on the best fit regression analysis curve from the mouse isobologram, multiplying each component by its effective species dose, and then forming the ratio of the amount of nalbuphine to 4,5-bis(4-methoxyphenyl)-2-(trifluoromethylsulfonyl)-1 H-imidazole. […] [E. W. Pelikan, The Pharmacologist, 1, 73 (1959). ]
Male CF1 mice obtained from Charles River Breeding Laboratories, fasted for 16-22 hours and weighing 18-22 g at the time of testing are used throughout. All mice are dosed sequentially by the oral route with suspensions of 4,5-bis(4-methoxyphenyl)-2-(trifluoromethylsulfonyl)-1H-imidazole and/or of nalbuphine hydrochloride. A dosing volume of 10 ml/kg is used for each sequential solution or suspension. […] All doses are coded and the test is performed under a code not known to the observer.
A stock suspension of 4,5-bis(4-methoxyphenyl)-2-trifluoromethylsulfonyl)-1H-imidazole is prepared by mixing 8.0 mg 4,5-bis(4-methoxyphenyl)-2-(trifluoromethylsulfonyl)-1H-imidazole with 80 ml of an aqueous vehicle containing 2% by volume of Tween 80®, a pharmacological dispersant manufactured by Fisher Scientific Company and containing 100% polysorbate 80, and 1% by weight of Methocel® MC powder, a suspending agent manufactured by DOW Chemical Company and containing 100% methylcellulose, in distilled water. The mixture is sonicated at 150 watts for 1-2 minutes with an ultrasound system, then shaken for two hours at 280 oscillations/minute with 15-20 gm of glass beads. The resultant suspension contains 0.1 mg/ml of 4,5-bis(4-methoxyphenyl)-2-(trifluoromethylsulfonyl)-1H-imidazole; all dosing suspensions are prepared by dilution of the stock suspension with the Methocel®/Tween 80® vehicle; the vehicle control is Methocel®/Tween 80®. All suspensions are prepared fresh daily.
Stock solutions of nalbuphine HCl are prepared by dissolving dry nalbuphine hydrochloride powder with distilled water. All dosing solutions are prepared by dilution of the stock solution with distilled water; the vehicle control is distilled water.
As indicated above, the standard procedure based upon the prevention of phenyl-p-benzoquinone induced writhing in mice is utilized to detect and quantify the analgetic activity of compositions containing nalbuphine and 4,5-bis(4-methoxyphenyl)-2-(trifluoromethylsulfonyl)-1H-imidazole.
Mice, intubated with various doses of nalbuphine hydrochloride, 4,5-bis(4-methoxyphenyl)-2-(trifluoromethylsulfonyl)-1H-imidazole, combined doses of nalbuphine hydrochloride and 4,5-bis(4-methoxyphenyl)-2-(trifluoromethylsulfonyl)-1H-imidazole, or vehicle, are injected intraperitoneally with a challenge dose of phenyl-p-benzoquinone 5 minutes prior to the designated observation period. The phenyl-p-benzoquinone is prepared as an 0.1 mg/ml solution in 5% by volume of ethanol in water; the writhing dose is 1.25 mg/kg injected in a volume of 0.25 ml/20 g. For scoring purposes a "writhe" is indicated by whole body stretching or contraction of the abdomen; mice are observed 10 minutes for the presence or absence of writhing beginning 5 minutes after receiving the phenyl-p-benzoquinone dose. Each mouse is used only once, then discarded. […] This dosage as described herein is referred to as the ED50. All ED50 values and their 95% confidence limits are determined numerically by the computer-assisted methods of Finney. [D. J. Finney, "Probit Analysis," Third Edition, Cambridge University Press, Cambridge, England, 1971].

**Q.** With `Oc1ccc2c3c1O[C@H]1[C@@H](O)CC[C@@]4(O)[C@@H](C2)N(CC2CCC2)CC[C@]314` [Nalbuphine, (-)-17-(cyclobutylmethyl)-4,5α-epoxymorphinan-3,6α,14-triol] as the compound, how does the “% MICE BLOCKED” value (40 min, nalbuphine HCl 5.85 mg/kg) read?
**A.** Its value is 16.7%.

**Q.** And the “% MICE BLOCKED” value (40 min, nalbuphine HCl 11.7 mg/kg)?
**A.** The value was 30.0%.

**Q.** What about the “% MICE BLOCKED” value (40 min, nalbuphine HCl 23.4 mg/kg) of the same compound?
**A.** The value was 43.3%.

**Q.** And the “% MICE BLOCKED” value (40 min, nalbuphine HCl 46.8 mg/kg)?
**A.** The value was 70.0%.

**Q.** What about the “% MICE BLOCKED” value (40 min, nalbuphine HCl 93.6 mg/kg) of the same compound?
**A.** The value was 83.3%.

**Q.** And the “ED50 at 40 min, nalbuphine HCl” value (40 min post oral dosing, nalbuphine HCl part of the ED50 dose, N = 30 mice/dose)?
**A.** The value was 28.9 mg/kg.

**Q.** And the “% MICE BLOCKED” value (80 min, nalbuphine HCl 24.5 mg/kg)?
**A.** The value was 6.7%.

**Q.** What about the “% MICE BLOCKED” value (80 min, nalbuphine HCl 49 mg/kg) of the same compound?
**A.** The value was 26.7%.

**Q.** And the “% MICE BLOCKED” value (80 min, nalbuphine HCl 98 mg/kg)?
**A.** The value was 40.0%.

**Q.** What about the “% MICE BLOCKED” value (80 min, nalbuphine HCl 196 mg/kg) of the same compound?
**A.** Its value is 56.7%.

**Q.** And the “% MICE BLOCKED” value (80 min, nalbuphine HCl 392 mg/kg)?
**A.** The value was 83.3%.

**Q.** And the “ED50 at 80 min, nalbuphine HCl” value (80 min post oral dosing, nalbuphine HCl part of the ED50 dose, N = 30 mice/dose)?
**A.** Its value is 141 mg/kg.

**Q.** Which results are given for `COc1ccc(-c2nc(S(=O)(=O)C(F)(F)F)[nH]c2-c2ccc(OC)cc2)cc1` [CII, 4,5-bis(4-methoxyphenyl)-2-(trifluoromethylsulfonyl)-1H-imidazole]?
**A.** % MICE BLOCKED (40 min, CII 0.063 mg/kg): 10.0%; % MICE BLOCKED (40 min, CII 0.125 mg/kg): 46.7%; % MICE BLOCKED (40 min, CII 0.250 mg/kg): 73.3%; % MICE BLOCKED (40 min, CII 0.500 mg/kg): 93.3%; ED50 at 40 min, CII (40 min post oral dosing, CII part of the ED50 dose, N = 30 mice/dose): 0.161 mg/kg; % MICE BLOCKED (80 min, CII 0.03 mg/kg): 13.3%; % MICE BLOCKED (80 min, CII 0.06 mg/kg): 26.7%; % MICE BLOCKED (80 min, CII 0.12 mg/kg): 56.7%; % MICE BLOCKED (80 min, CII 0.24 mg/kg): 63.3%; ED50 at 80 min, CII (80 min post oral dosing, CII part of the ED50 dose, N = 30 mice/dose): 0.135 mg/kg
